Source: US10669545B2, “Tumor cell malignant transformation suppressor and anti-tumor agent” (JAPAN SCIENCE AND TECHNOLOGY AGENCY, priority 2015, dated 2020)

Assays:
Assay type in all cases: cell-based, human
A375 cells = experiment: Annexin V-positive cells, A375 cells; conditions: UO126 10 μM or oxaliplatin 20 μM for 48 hours, compared with PLX4032 case
Procedure: The percentage of Annexin V-positive cells was measured as follows. First, FITC labeled Annexin V (manufactured by MBL, Nagoya, Japan) and Hoechst33342 were added to each cell and incubated for 40 minutes. Next, a stained state of the incubated cells was analyzed by using DAPI filter and FITC filter of an imaging cytometer, “In Cell Analyzer 2000” (manufactured by GE healthcare). Percentage (%) of […] was determined by In Cell Analyzer Workstation 3.7 (manufactured by GE healthcare). The statistical difference was determined by the Tukey's multiple comparisons of means test (**: P<0.01, *: P<0.05).
Next, the influence of knockdown of endogenous ZIC5, and PDGFD and ITGA6, which are downstream factors, on a decrease in cell proliferation by PLX4032 and induction of apoptosis was examined. […] Next, the treated cells were added to FITC labeled Annexin V (manufactured by MBL, Nagoya, Japan) and Hoechst33342 and incubated for 40 minutes. […]
(§1) The statistical difference was determined by the Tukey's multiple comparisons of means test (**: P<0.01, *: P<0.05).

[1] = system: stably Zic5 gene-expressed line (SK-MEL-28 cells); experiment: Annexin V-positive cells, stably Zic5 gene-expressed line; conditions: WP1066 10 μM for 24 hours; not shown
Procedure: PLX4032 was dissolved in DMSO to be used as a solution, and a line added to an equal amount of DMSO (DMSO treatment) was used as a control. The result of a relative cell number (n=3) in which the number of cells of the cells in which the stably Flag-expressed line was treated with PLX4032 (in the drawing, “+” on the “PLX4032” section, the same applies to the following examples), or the cells treated with DMSO (in the drawing, “−” on the “PLX4032” section, the same applies to the following examples) was set to 1 is shown in FIG. 30. The statistical difference was determined by the Tukey's multiple comparisons of means test (**: P<0.01, *: P<0.05). […]
The percentage of Annexin V-positive cells was measured as follows. […] Next, a stained state of the incubated cells was analyzed by using DAPI filter and FITC filter of an imaging cytometer, “In Cell Analyzer 2000” (manufactured by GE healthcare). Percentage (%) of […] was determined by In Cell Analyzer Workstation 3.7 (manufactured by GE healthcare). The statistical difference was determined by the Tukey's multiple comparisons of means test (**: P<0.01, *: P<0.05).
as §1

ZIC5 = experiment: Western blotting of ZIC5; conditions: A375 cells; 24 hours; FAK inhibitor I 0-5 μM, WP1066 0-4 μM, IL-6 0-20 ng/mL
Procedure: The expression level of PDGFD gene and Zic5 gene in the obtained cells was measured by western blotting using GAPDH as an internal control. Western blotting was performed according to a method of Kanemaru et al. (refer to NPL 13) using anti-ZIC5 antibody (manufactured by Aviva systems biology), anti-PDGFD antibody (manufactured by Santa Cruz), and anti-GAPDH antibody (manufactured by Cell Signaling).
(§2) A375 cells were treated in a medium in which a concentration of a FAK inhibitor I (manufactured by Calbiochem) was 0, 1, 2.5, or 5 μM for 24 hours, and the level of ZIC5, pro-PDGFD, pERK, and β-actin was measured by western blotting. Western blotting was performed in the same manner as above except that anti-ZIC5 antibody (manufactured by Aviva systems biology), anti-PDGFD antibody (manufactured by Santa Cruz), anti-pERK antibody (manufactured by Cell Signaling), and anti-β-actin antibody (manufactured by Sigma) were used.
A375 cells were treated in a medium in which a concentration of the Stat3 inhibitor, WP1066 (manufactured by Santa Cruz, Dallas, Tex.) was 0, 1, 1.5, 2, 2.5, 3, or 4 μM for 24 hours, and then western blotting was performed to assess the level of ZIC5, pro-PDGFD, pSTAT3, STAT3, and GAPDH. […]

total STAT3 (STAT3) = experiment: Western blotting of total STAT3; conditions: A375 cells; 24 hours; WP1066 0-4 μM, IL-6 0-20 ng/mL
Procedure: (§3) A375 cells were treated in a medium in which a concentration of the Stat3 inhibitor, WP1066 (manufactured by Santa Cruz, Dallas, Tex.) was 0, 1, 1.5, 2, 2.5, 3, or 4 μM for 24 hours, and then western blotting was performed to assess the level of ZIC5, pro-PDGFD, pSTAT3, STAT3, and GAPDH. Western blotting was performed in the same manner as above except that anti-ZIC5 antibody (manufactured by Aviva systems biology), anti-PDGFD antibody (manufactured by Santa Cruz), anti-pSTAT3 antibody (manufactured by Cell Signaling), STAT3 antibody (manufactured by BD Biosciences), and anti-GAPDH antibody (manufactured by Cell Signaling) were used.
as §3, with “Interleukin-6 (IL-6)” for “the Stat3 inhibitor, WP1066”, “Novus Biologicals)” for “Santa Cruz, Dallas, Tex.)”, “10,” for “1, 1.5, 2, 2.5, 3,”, “20 ng/mL” for “4 μM”, “anti-pERK” for “anti-PDGFD”, “Cell Signaling),” for “Santa Cruz),”

pro-PDGFD = experiment: Western blotting of pro-PDGFD; conditions: A375 cells; 24 hours; FAK inhibitor I 0-5 μM, WP1066 0-4 μM
Source text: Because phosphorylation of focal adhesion kinase (FAK), which is activated at Focal adhesion, has been associated with melanoma malignancy (refer to NPL 19), FAK change by ZIC5 was examined. Furthermore, focusing on Integrin, alpha 6 (ITGA6) and platelet-derived growth factor D (PDGFD) among the Focal adhesion-related genes in the altered genes by Zic5 knockdown, change in cells was examined. Specifically, a level of phosphorylated FAK (pFAK), total FAK (FAK), ITGA6, pro-PDGFD, and β-actin in A375 cells transfected with siZIC5 or siNeg was assessed by western blotting. Western blotting was performed in the same manner as above except that anti-pFAK antibody (manufactured by Signalway Antibody), anti-FAK antibody (manufactured by Acris), anti-β-actin antibody (manufactured by Sigma), anti-ITGA6 antibody (manufactured by GeneTex), and anti-PDGFD antibody (manufactured by Santa Cruz) were used.
The expression level of PDGFD gene and Zic5 gene in the obtained cells was measured by western blotting using GAPDH as an internal control. […]
A375 cells were treated in a medium in which a concentration of a FAK inhibitor I (manufactured by Calbiochem) was 0, 1, 2.5, or 5 μM for 24 hours, and the level of ZIC5, pro-PDGFD, pERK, and β-actin was measured by western blotting. […]

[2] = system: phosphorylated Stat3 (pStat3); experiment: Western blotting of phosphorylated Stat3; conditions: A375 cells; 24 hours; WP1066 0-4 μM, IL-6 0-20 ng/mL
Procedure: as §3
as §3, with “Interleukin-6 (IL-6)” for “the Stat3 inhibitor, WP1066”, “Novus Biologicals)” for “Santa Cruz, Dallas, Tex.)”, “10,” for “1, 1.5, 2, 2.5, 3,”, “20 ng/mL” for “4 μM”, “anti-pERK” for “anti-PDGFD”, “Cell Signaling),” for “Santa Cruz),”

[3] = system: stably Zic5 gene-expressed line (SK-MEL-28 cells); experiment: Transwell Migration Assay, stably Zic5 gene-expressed line; conditions: treated or non-treated with ROCK inhibitor
Procedure: Specifically, the stably Zic5 gene-expressed line and the stably Flag-expressed line were seeded in a 24-well plate into which an insert with 8-μm sized pores (manufactured by BD Biosciences) was put and were cultured in RPMI 1640 medium containing 10% FBS, and then the number of migrated cells was counted.
The influence of suppressing MLC2 phosphorylation on migration ability of cells was analyzed. Specifically, Transwell Migration Assay was performed in the same manner as above with the stably Zic5 gene-expressed line and the stably Flag-expressed line in a state of being treated or non-treated with a ROCK inhibitor (Y27632), and then the number of migrated cells was counted.
The number of migrated cells was normalized to a total number of viable cells. A relative cell number (n=3) in which the number of migrated cells transfected with siNeg#1 of each cell was set to 1 is shown in FIG. 29. The statistical difference was determined by the Tukey's multiple comparisons of means test (**: P<0.01, *: P<0.05).

[4] = system: phosphorylated MLC2 (ppMLC2); experiment: Western blotting of phosphorylated MLC2; conditions: stably Zic5 gene-expressed line treated with ROCK inhibitor; not shown
Procedure: Myosin light chain 2 (MLC2) is known as an important factor for enhancing melanoma motility. It is known that MLC2 is activated through phosphorylation and enhances cell motility by enhancing actomyosin contraction (refer to NPLs 14 and 15). A protein level of phosphorylated MLC2 (ppMLC2), MLC2, and GAPDH of each cell was measured by western blotting. Western blotting was performed according to a method of Kanemaru et al. (refer to NPL 13) using anti-ppMLC2 antibody, anti-MLC2 antibody, and anti-GAPDH antibody (all manufactured by Cell Signaling).
Motility of melanoma cells in a case of siRNA-mediated knockdown of endogenous Zic5 gene was examined by performing Transwell Migration Assay. Specifically, SK-MEL-28 cells and A375 cells, which are melanoma cell lines, were transfected with siZIC5#1, siZIC5#2, siNeg#1, or siNeg#2 described in Table 2 in the same manner as Example 1. In the same manner as above, Transwell Migration Assay was performed with the cells transfected with each siRNA, and then the number of migrated cells was counted. […] The protein level of ppMLC2, MLC2, and GAPDH in the cells in which SK-MEL-28 cells were transfected with siRNA was measured by western blotting. The result of western blotting with SK-MEL-28 cells is shown at the bottom of FIG. 9.
The protein level of ppMLC2, MLC2, and GAPDH in each cell was measured by western blotting in the same manner as above.

[5] = system: phosphorylated ERK1/2 (Thr202/204) (pERK); experiment: Western blotting of phosphorylated ERK1/2; conditions: A375 cells; 24 hours; FAK inhibitor I 0-5 μM, IL-6 0-20 ng/mL
Procedure: Western blotting was performed in the same manner as above except that anti-pAKT antibody (manufactured by Cell Signaling), anti-AKT antibody (manufactured by Cell Signaling), anti-pERK antibody (manufactured by Cell Signaling), anti-ERK antibody (manufactured by Cell Signaling), and anti-β-actin antibody (manufactured by Sigma) were used.
vemR-1 to 3 cells and HT144 cells were treated with DMSO or PLX4032 solution (which was dissolved in DMSO to become 5 μM) for 48 hours, and the level of pAKT, AKT, pERK, ERK, and β-actin of these cells was assessed by western blotting in the same manner as Example 8.
as §2
A375 cells were treated in a medium in which a concentration of Interleukin-6 (IL-6) (manufactured by Novus Biologicals) was 0, 10, or 20 ng/mL for 24 hours, and then western blotting was performed to assess the level of ZIC5, pro-PDGFD, pSTAT3, STAT3, and GAPDH. […]

Compound	percentage of Annexin V-positive cells, drug treatment of siZIC5- vs siNeg-transfected cells (A375 cells)	expression level of ZIC5 (ZIC5)	level of STAT3 (total STAT3 (STAT3))	expression level of pSTAT3 [2]	further results
N#CC(=C(/N)Sc1ccccc1N)/C(C#N)=C(/N)Sc1ccccc1N [UO126]	the same results were obtained				
C[C@H](NC(=O)/C(C#N)=C/c1cccc(Br)n1)c1ccccc1 [WP1066, reference compound]		decreased in accordance with a concentration of the Stat3 inhibitor	not changed	decreased in accordance with a concentration of the Stat3 inhibitor	suppression of apoptosis by Zic5 [1]: completely suppressed; expression level of pro-PDGFD (pro-PDGFD): decreased in accordance with a concentration of the Stat3 inhibitor
C[C@@H](N)[C@H]1CC[C@H](C(=O)Nc2ccncc2)CC1 [Y27632, reference compound]					increase of migrated cells by Zic5 gene overexpression [3]: partially suppressed; band of ppMLC2 [4]: hardly detected
O=C1[O][Pt]2([NH][C@@H]3CCCC[C@H]3[NH]2)[O]C1=O [oxaliplatin]	the same results were obtained				
IL-6: Interleukin-6 (manufactured by Novus Biologicals)		increased in accordance with a concentration of the IL-6	not changed	increased in accordance with a concentration of the IL-6	level of pERK [5]: not changed
